From paper PMC11859928, “Design, Synthesis, and Antiproliferative Activity of Novel Indole/1,2,4-Triazole Hybrids as Tubulin Polymerization Inhibitors” (Pharmaceuticals, 2025)
Like-named read-outs stand apart in the source and are kept apart here.

What was measured:
KM12 = experiment: NCI five-dose assay; assay type: cell-based, human; details: KM12, five dose levels
Renal cancer subpanel = experiment: NCI five-dose assay, subpanel mean; assay type: cell-based, human
NCI-H23 = experiment: NCI five-dose assay; assay type: cell-based, human; details: NCI-H23, five dose levels
OVCAR-3 = experiment: NCI five-dose assay; assay type: cell-based, human; details: OVCAR-3, five dose levels
NCI-H322M = experiment: NCI five-dose assay; assay type: cell-based, human; details: five dose levels
Melanoma subpanel = experiment: NCI five-dose assay, subpanel mean; assay type: cell-based, human
DU-145 = experiment: NCI five-dose assay; assay type: cell-based, human; details: DU-145, five dose levels
COLO205 = experiment: NCI five-dose assay; assay type: cell-based, human; details: COLO205, five dose levels
HOP-62 = experiment: NCI five-dose assay; assay type: cell-based, human; details: HOP-62, five dose levels
M14 = experiment: NCI five-dose assay; assay type: cell-based, human; details: M14, five dose levels
SR = experiment: NCI five-dose assay; assay type: cell-based, human; details: five dose levels
Colon cancer subpanel = experiment: NCI five-dose assay, subpanel mean; assay type: cell-based, human
OVCAR-5 = experiment: NCI five-dose assay; assay type: cell-based, human; details: OVCAR-5, five dose levels
OVCAR-4 = experiment: NCI five-dose assay; assay type: cell-based, human; details: OVCAR-4, five dose levels
CAKI-1 = experiment: NCI five-dose assay; assay type: cell-based, human; details: CAKI-1, five dose levels
Ovarian cancer subpanel = experiment: NCI five-dose assay, subpanel mean; assay type: cell-based, human
[1] = test system: panel of 60 human tumor cell lines; experiment: NCI five-dose assay, full panel; assay type: cell-based
TK-10 = experiment: NCI five-dose assay; assay type: cell-based, human; details: TK-10, five dose levels
A549/ATCC = experiment: NCI five-dose assay; assay type: cell-based, human; details: five dose levels
IGROV1 = experiment: NCI five-dose assay; assay type: cell-based, human; details: IGROV1, five dose levels
K-562 = experiment: NCI five-dose assay; assay type: cell-based, human; details: Homo sapiens, K562, K-562, five dose levels
NCI-H226 = experiment: NCI five-dose assay; assay type: cell-based, human; details: Homo sapiens, NCI-H226, five dose levels
MDA-MB-435 = experiment: NCI five-dose assay; assay type: cell-based, human; details: MDA-MB-435, five dose levels
A498 = experiment: NCI five-dose assay; assay type: cell-based, human; details: A498, five dose levels
SF-295 = experiment: NCI five-dose assay; assay type: cell-based, human; details: SF-295, five dose levels
OVCAR-8 = experiment: NCI five-dose assay; assay type: cell-based, human; details: OVCAR-8, five dose levels
SK-MEL-2 = experiment: NCI five-dose assay; assay type: cell-based, human; details: Homo sapiens, SK-MEL-2, five dose levels
[2] = Homo sapiens, read-out: GI50 Conc. per Cell Lines
[3] = Homo sapiens, read-out: LC50 (the source's name)
[4] = read-out: GI50 Conc. per Cell Lines
[5] = read-out: LC50 (the source's name)

O/N=C(\CSc1nnc(-c2c[nH]c3ccccc23)n1-c1ccccc1)c1ccc(Cl)cc1 [Compound 7j, (Z)-2-((5-(1H-Indol-3-yl)-4-phenyl-4H-1,2,4-triazol-3-yl)thio)-1-(4-chlorophenyl) Ethanone Oxime]
GI50 (KM12; [2]): 4.72 µM
CC50 (KM12; [3]): > 100 µM
TGI Conc. per Cell Lines (KM12): >100 µM
GI50 (Renal cancer subpanel; Homo sapiens, Renal cancer, average sensitivity of all cell lines of the subpanel, read-out: GI50 Subpanel MID b): 5.23 µM
GI50 Selectivity Ratio (MID a/MID b) (Renal cancer subpanel; Renal cancer subpanel): 0.69
GI50 (NCI-H23; [2]): 6.52 µM
CC50 (NCI-H23; [3]): > 100 µM
TGI Conc. per Cell Lines (NCI-H23): >100 µM
LC50 (OVCAR-3; Homo sapiens): > 100 µM
GI50 (OVCAR-3; [2]): 4.58 µM
TGI Conc. per Cell Lines (OVCAR-3): 32.4 µM
GI50 (NCI-H322M; [2]): 5.71 µM
CC50 (NCI-H322M; [3]): > 100 µM
TGI Conc. per Cell Lines (NCI-H322M): 7.33 µM
GI50 (Melanoma subpanel; Homo sapiens, Melanoma, average sensitivity of all cell lines of the subpanel, read-out: GI50 Subpanel MID b): 3.42 µM
GI50 Selectivity Ratio (MID a/MID b) (Melanoma subpanel; Melanoma subpanel): 1.06
TGI Conc. per Cell Lines (DU-145): 6.32 µM
GI50 (DU-145; [2]): 2.59 µM
CC50 (DU-145; [3]): > 100 µM
TGI Conc. per Cell Lines (COLO205): 25.9 µM
GI50 (COLO205; Homo sapiens, COLO 205, read-out: GI50 Conc. per Cell Lines): 4.47 µM
CC50 (COLO205; Homo sapiens, COLO 205, read-out: LC50 (the source's name)): > 100 µM
TGI Conc. per Cell Lines (HOP-62): 3.65 µM
GI50 (HOP-62; [2]): 1.74 µM
GI50 (M14; [2]): 3.15 µM
CC50 (M14; [3]): > 100 µM
TGI Conc. per Cell Lines (M14): 14.1 µM
GI50 (SR; [2]): 4.74 µM
CC50 (SR; [3]): > 100 µM
TGI Conc. per Cell Lines (SR): >100 µM
GI50 Selectivity Ratio (MID a/MID b) (Colon cancer subpanel; Colon cancer subpanel): 0.978
GI50 (Colon cancer subpanel; Homo sapiens, Colon cancer, average sensitivity of all cell lines of the subpanel, read-out: GI50 Subpanel MID b): 3.73 µM
LC50 (OVCAR-5; Homo sapiens): > 100 µM
GI50 (OVCAR-5; [2]): 3.37 µM
TGI Conc. per Cell Lines (OVCAR-5): 11.4 µM
LC50 (OVCAR-4; Homo sapiens): > 100 µM
GI50 (OVCAR-4; [2]): 1.96 µM
TGI Conc. per Cell Lines (OVCAR-4): 4.32 µM
TGI Conc. per Cell Lines (CAKI-1): 12.4 µM
LC50 (CAKI-1; Homo sapiens): > 100 µM
GI50 (CAKI-1; [2]): 2.93 µM
GI50 (Ovarian cancer subpanel; Homo sapiens, Ovarian cancer, average sensitivity of all cell lines of the subpanel, read-out: GI50 Subpanel MID b): 3.61 µM
GI50 Selectivity Ratio (MID a/MID b) (Ovarian cancer subpanel; Ovarian cancer subpanel): 1.01
GI50 ([1]; average sensitivity of all cell lines, read-out: GI50 MID a): 3.65 µM
GI50 ([1]; most of the tested cell lines across nine subpanels, read-out: GI50 values, range across nine subpanels): 2.45 to 5.23 µM
GI50 (TK-10; [2]): 3.7 µM
CC50 (TK-10; [3]): > 100 µM
TGI Conc. per Cell Lines (TK-10): 17.7 µM
GI50 (A549/ATCC; [2]): 3.35 µM
CC50 (A549/ATCC; [3]): > 100 µM
TGI Conc. per Cell Lines (A549/ATCC): 16.8 µM
GI50 (IGROV1; Homo sapiens, IGROV-1, read-out: GI50 Conc. per Cell Lines): 5.35 µM
CC50 (IGROV1; Homo sapiens, IGROV-1, read-out: LC50 (the source's name)): > 100 µM
TGI Conc. per Cell Lines (IGROV1): 19.8 µM
GI50 (K-562; [4]): 2.55 µM
CC50 (K-562; [5]): > 100 µM
GI50 (NCI-H226; [4]): 3.99 µM
CC50 (NCI-H226; [5]): 61.8 µM
GI50 (MDA-MB-435; [2]): 1.74 µM
CC50 (MDA-MB-435; [3]): 60.5 µM
TGI Conc. per Cell Lines (MDA-MB-435): 3.41 µM
TGI Conc. per Cell Lines (A498): 65.8 µM
LC50 (A498; Homo sapiens): 88.6 µM
GI50 (A498; [2]): 15.4 µM
GI50 (SF-295; [2]): 3.11 µM
CC50 (SF-295; [3]): > 100 µM
TGI Conc. per Cell Lines (SF-295): 13.4 µM
GI50 (OVCAR-8; [2]): 3.72 µM
CC50 (OVCAR-8; [3]): > 100 µM
TGI Conc. per Cell Lines (OVCAR-8): 15.8 µM
GI50 (SK-MEL-2; [4]): 3.64 µM
CC50 (SK-MEL-2; [5]): > 100 µM
